Data reported in US20070015279A1, “Methods of Selecting Pancreatic Endocrine Cells Using Protein Synthesis Inhibitors” (AmCyte Inc., priority 2005, published 2007).
Values after ≈ are worked out from the molar mass of the structure shown.

Tests used:
RbbA = details: control antibiotic; cited from earlier work
[1] = system: 70S ribosome-associated ATPase activity; details: cited from earlier work
30S ribosomal subunit = details: cited from earlier work; for reduction of the rate of 30S formation compared with control cells: 3 μg/mL
cells = details: cited from earlier work
HD487B cells = assay: Puromycin selection of HD487B cells, insulin mRNA by quantitative RT-PCR; type: cell-based, human
Description: In an attempt to see if other protein synthesis inhibitors have similar effect as hygromycin B on cultured pancreatic cells puromycin was used in a pilot experiment. We treated P0 cells from HD487B with puromycin at either 2.5 or 5 μg/mL concentrations in SM95/M7 (4:1) for overnight. The cells were recovered in the same medium without puromycin till reaching confluence and passaged to P1. P1 and P2 cells were cultured in SM95/M7 (9:1) with Wnt3a (20 ng/mL). P3 and P4 cells were cultured in SM95/M7 (4:1) with bFGF (50 ng/mL). P5 cells were cultured in maturation medium. We took portions of cells at each passages and analyzed insulin gene expression by quantitative RT-PCR and normalized to β-actin expression. Cells that survived puromycin treatment also expressed insulin at passages 1, 2, 3, 4, and 5.

[2] = system: cultured adult human pancreatic cells; assay: G418 sulfate treatment of HD522B P0 cells, marker mRNA by quantitative RT-PCR; type: cell-based
Description: (§1) HD522B P0 cells were cultured in M3 for 4 days; G418 sulfate in M3 at the following concentrations (μg/ml) was added to the culture: 0, 5, 25, 50, 100, 200, 500, and 1000. The cells were cultured in the presence of G418 sulfate for 48 h, switched to recovery medium (M3/ITS/LIF) for one week and harvested for quantitative RT-PCR analysis. The control group had to be harvested two days post recovery due to confluence. […] At lower dosages, cell death occurred between 1 and 3 days after switch to recovery medium. Cell proliferation could be observed during the recovery period in most of the conditions except in cultures containing 500 and 1000 μg/ml G418 sulfate. Cell confluence from each plate was estimated as following: 0 (100%), 5 (100%), 25 (95%), 50 (85%), 100 (50%), 200 (20%), 500 (less than 5%), 1000 (less than 2%). Approximately equal amount of cells from each plate were used for analysis based on the estimated confluences of each plate except the plates received 500 and 1000 μg/ml G418 sulfate treatment. The β-actin mRNA copy numbers have no significant variation in control group and cells received 5, 25, 50, and 100 μg/ml G418 whereas cells that received 200 to 1000 μg/ml G418 have much lower β-actin expression especially the 500 and 1000 μg/ml samples. This correlated well with the decreased cell confluence in these samples. The expression of endocrine gene markers increased as the concentration of G418 concentration increased to 100 μg/ml and decreased when G418 concentration is above 200 μg/ml. The expression of amylase, an exocrine marker, and nestin, a marker of mesenchymal cell, decreased as G418 concentration increased.

HD522B P0 cells = assay: G418 sulfate treatment of HD522B P0 cells, cell death and confluence; type: cell-based, human; details: for Cell confluence (estimated): one week recovery
Description: as §1

## [H]/N=C(/N)N[C@H]1[C@H](O)[C@@H](O)[C@H](O[C@@H]2O[C@@H](C)[C@](O)(C=O)[C@H]2O[C@@H]2O[C@@H](CO)[C@H](O)[C@@H](O)[C@@H]2NC)[C@@H](N/C(N)=N\[H])[C@@H]1O [Streptomycin, streptomycin]
RbbA
  RbbA released, relative to the amount hygromycin B releases: about 25%
[1]
  inhibition of the ATPase activity of ribosomes compared to that of hygromycin B: about 20%

## NC[C@@H]1O[C@H](O[C@H]2[C@@H](O)[C@H](O[C@@H]3[C@@H](O)[C@H](N)C[C@H](N)[C@H]3O[C@H]3O[C@H](CO)[C@@H](O)[C@H](O)[C@H]3N)O[C@@H]2CO)[C@H](N)[C@@H](O)[C@@H]1O [paromomycin]
30S ribosomal subunit
  reduction of the rate of 30S formation compared with control cells: about 80%
cells
  IC50, viable cell number: 2 µg/mL (≈ 3.25 µM)

## COc1ccc(C[C@H](N)C(=O)N[C@H]2[C@@H](O)[C@H](n3cnc4c(N(C)C)ncnc43)O[C@@H]2CO)cc1 [puromycin]
HD487B cells; HD487B P1, 2.5 μg/mL @ P0
  Insulin expression (normalized to β-actin): 3.96E−01
HD487B cells; HD487B P1, 5 μg/mL @ P0
  Insulin expression (normalized to β-actin): 8.48E−02
HD487B cells; HD487B P2, 2.5 μg/mL @ P0
  Insulin expression (normalized to β-actin): 1.39E−02
HD487B cells; HD487B P2, 5 μg/mL @ P0
  Insulin expression (normalized to β-actin): 2.51E−02
HD487B cells; HD487B P3, 2.5 μg/mL @ P0
  Insulin expression (normalized to β-actin): 9.89E−03
HD487B cells; HD487B P3, 5 μg/mL @ P0
  Insulin expression (normalized to β-actin): 2.63E−02
HD487B cells; HD487B P4, 2.5 μg/mL @ P0
  Insulin expression (normalized to β-actin): 3.46E−03
HD487B cells; HD487B P5, 2.5 μg/mL @ P0
  Insulin expression (normalized to β-actin): 1.83E−03

## geneticin sulfate [G418 Sulfate]
[2]; 5 μg/ml 48 h
  Amylase/β-actin: 1.72E−03
  CK19/β-actin: 7.51E−01
  Delta/β-actin: 1.24E−04
  GCK/β-actin: 2.20E−04
  GLUT2/β-actin: 4.36E−05
  Gcg/β-actin: 1.97E−02
  Insulin/β-actin: 1.67E+00
  NCAM/β-actin: 1.51E−01
  Nestin/β-actin: 2.52E−03
  NeuroD/β-actin: 1.26E−03
  Ngn3/β-actin: 2.45E−07
  Nkx2.2/β-actin: 7.84E−05
  Nkx6.1/β-actin: 4.52E−04
  Notch1/β-actin: 8.14E−05
  P48/β-actin: 8.62E−03
  PDX/β-actin: 7.02E−04
  Pax4/β-actin: 9.82E−06
  SST/β-actin: 5.88E−02
[2]; 25 μg/ml 48 h
  Amylase/β-actin: 6.09E−04
  CK19/β-actin: 1.06E+00
  Delta/β-actin: 1.08E−04
  GCK/β-actin: 2.51E−04
  GLUT2/β-actin: 1.10E−04
  Gcg/β-actin: 4.56E−02
  Insulin/β-actin: 3.40E+00
  NCAM/β-actin: 2.23E−01
  Nestin/β-actin: 1.24E−03
  NeuroD/β-actin: 1.79E−03
  Ngn3/β-actin: 9.19E−07
  Nkx2.2/β-actin: 2.35E−04
  Nkx6.1/β-actin: 6.45E−04
  Notch1/β-actin: 3.02E−04
  P48/β-actin: 1.12E−02
  PDX/β-actin: 1.11E−03
  Pax4/β-actin: 1.24E−05
  SST/β-actin: 1.03E−01
[2]; 50 μg/ml 48 h
  Amylase/β-actin: 4.50E−04
  CK19/β-actin: 1.02E+00
  Delta/β-actin: 7.70E−05
  GCK/β-actin: 3.01E−04
  GLUT2/β-actin: 2.17E−04
  Gcg/β-actin: 9.04E−02
  Insulin/β-actin: 5.51E+00
  NCAM/β-actin: 1.51E−01
  Nestin/β-actin: 5.42E−04
  NeuroD/β-actin: 3.10E−03
  Ngn3/β-actin: 2.13E−06
  Nkx2.2/β-actin: 4.03E−04
  Nkx6.1/β-actin: 6.82E−04
  Notch1/β-actin: 4.91E−04
  P48/β-actin: 9.21E−03
  PDX/β-actin: 1.28E−03
  Pax4/β-actin: 2.63E−05
  SST/β-actin: 1.84E−01
[2]; 100 μg/ml 48 h
  Amylase/β-actin: 5.09E−04
  CK19/β-actin: 9.98E−01
  Delta/β-actin: 1.16E−04
  GCK/β-actin: 8.81E−04
  GLUT2/β-actin: 4.53E−04
  Gcg/β-actin: 1.85E−01
  Insulin/β-actin: 1.06E+01
  NCAM/β-actin: 9.73E−02
  Nestin/β-actin: 3.48E−04
  NeuroD/β-actin: 6.94E−03
  Ngn3/β-actin: 2.71E−06
  Nkx2.2/β-actin: 8.70E−04
  Nkx6.1/β-actin: 9.19E−04
  Notch1/β-actin: 5.39E−04
  P48/β-actin: 7.93E−03
  PDX/β-actin: 1.72E−03
  Pax4/β-actin: 5.31E−05
  SST/β-actin: 4.63E−01
[2]; 200 μg/ml 48 h
  Amylase/β-actin: 1.29E−03
  CK19/β-actin: 4.09E−01
  Delta/β-actin: 2.67E−04
  GCK/β-actin: 2.74E−03
  GLUT2/β-actin: 1.33E−03
  Gcg/β-actin: 5.44E−01
  Insulin/β-actin: 1.56E+01
  NCAM/β-actin: 6.17E−02
  Nestin/β-actin: 1.81E−03
  NeuroD/β-actin: 1.76E−02
  Ngn3/β-actin: 2.37E−06
  Nkx2.2/β-actin: 3.31E−03
  Nkx6.1/β-actin: 1.99E−03
  Notch1/β-actin: 1.60E−03
  P48/β-actin: 1.04E−02
  PDX/β-actin: 6.90E−03
  Pax4/β-actin: 2.32E−04
  SST/β-actin: 1.37E+00
[2]; 500 μg/ml 48 h
  Amylase/β-actin: 7.63E−03
  CK19/β-actin: 1.03E−01
  Delta/β-actin: 1.27E−03
  GCK/β-actin: 1.85E−02
  GLUT2/β-actin: 1.09E−02
  Gcg/β-actin: 3.80E+00
  Insulin/β-actin: 8.21E+01
  NCAM/β-actin: 5.51E−02
  Nestin/β-actin: 3.37E−03
  NeuroD/β-actin: 1.42E−01
  Ngn3/β-actin: 0.00E+00
  Nkx2.2/β-actin: 2.84E−02
  Nkx6.1/β-actin: 1.28E−02
  Notch1/β-actin: 1.93E−03
  P48/β-actin: 2.43E−02
  PDX/β-actin: 5.35E−02
  Pax4/β-actin: 1.50E−03
  SST/β-actin: 8.06E+00
[2]; 1000 μg/ml 48 h
  Amylase/β-actin: 1.24E−02
  CK19/β-actin: 1.44E−02
  Delta/β-actin: 4.18E−03
  GCK/β-actin: 2.39E−02
  GLUT2/β-actin: 1.29E−02
  Gcg/β-actin: 4.98E+00
  Insulin/β-actin: 2.02E+02
  NCAM/β-actin: 3.31E−02
  Nestin/β-actin: 0.00E+00
  NeuroD/β-actin: 1.72E−01
  Ngn3/β-actin: 0.00E+00
  Nkx2.2/β-actin: 6.69E−02
  Nkx6.1/β-actin: 1.37E−02
  Notch1/β-actin: 3.99E−03
  P48/β-actin: 5.95E−02
  PDX/β-actin: 4.87E−02
  Pax4/β-actin: 7.64E−04
  SST/β-actin: 2.43E+01
HD522B P0 cells; 5 μg/ml 48 h
  Cell confluence (estimated): 100%
HD522B P0 cells; 25 μg/ml 48 h
  Cell confluence (estimated): 95%
HD522B P0 cells; 50 μg/ml 48 h
  Cell confluence (estimated): 85%
HD522B P0 cells; 100 μg/ml 48 h
  Cell confluence (estimated): 50%
HD522B P0 cells; 200 μg/ml 48 h
  Cell confluence (estimated): 20%
HD522B P0 cells; 500 μg/ml 48 h
  Cell confluence (estimated): less than 5%
HD522B P0 cells; 1000 μg/ml 48 h
  Cell confluence (estimated): less than 2%
HD522B P0 cells; 500 and 1000 μg/ml groups, from start of treatment
  time to observed cell death: ≤ 24 h

## neomycin
30S ribosomal subunit
  reduction of the rate of 30S formation compared with control cells: about 80%
  IC50 for 30S particle formation: equal to the IC50 for inhibition of translation
cells
  IC50, viable cell number: 2 µg/mL
